Reference: publication PMC5285354, “Cationic Net Charge and Counter Ion Type as Antimicrobial Activity Determinant Factors of Short Lipopeptides” (Frontiers in Microbiology, 2017)
≈ marks a conversion by molar mass, not a printed value. Where a SMILES comes first, the peptide text is derived from it. The star is where a group is joined. Myristoyl = CCCCCCCCCCCCCC(=O)*

How the values were obtained:
Assay type in all cases: cell-based
[1] = test system: Pseudomonas aeruginosa (ATCC 9027); conditions: ATCC 9027, 24 h
[2] = test system: Candida albicans (ATCC 10231)
[3] = test system: Candida tropicalis (PCM 2681); conditions: PCM 2681, 48 h
Outline: (§1)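 Lowest lipopeptide concentration (μg/mL) with no observable growth gave the MIC, alongside MBC/MFC, by CLSI microbroth dilution. Fungi: Sabouraud dextrose broth, 10^3 cfu/mL start, 25°C for 48 h; bacteria: MH broth, 10^5 cfu/mL, 37°C for 18 h. Run in triplicate, three separate days.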

[4] = test system: Bacillus subtilis (ATCC 6633); conditions: for MIC Bacillus subtillis: ATCC 6633, 18 h; for MBC Bacillus subtillis: ATCC 6633, 24 h
Outline: as §1

[5] = test system: Staphylococcus epidermidis (PCM 2118); conditions: for MIC Staphylococcus epidermidis: PCM 2118, 18 h; for MBC Staphylococcus epidermidis: PCM 2118, 24 h
Outline: as §1

[6] = test system: Aspergillus brasiliensis (ATCC 16404); conditions: ATCC 16404, 48 h
Outline: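 Broth microdilution per CLSI: Mueller-Hinton broth, 10^5 cfu/mL inoculum, 18 h at 37°C for bacteria; Sabouraud dextrose broth, 10^3 cfu/mL, 48 h at 25°C for fungi. MIC (μg/mL) is the lowest lipopeptide concentration inhibiting visible growth; MBC/MFC also determined. Triplicate on three days.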

[7] = test system: Staphylococcus aureus (ATCC 25923); conditions: for MBC Staphylococcus aureus, lipopeptides without TFA counter ion / MIC Staphylococcus aureus / MIC Staphylococcus aureus, lipopeptides without TFA counter ion: ATCC 25923, 18 h; for MBC Staphylococcus aureus: ATCC 25923, 24 h
Outline: as §1

[8] = test system: Escherichia coli (ATCC 25922); conditions: for MBC Escherichia coli, lipopeptides without TFA counter ion / MIC Escherichia coli / MIC Escherichia coli, lipopeptides without TFA counter ion: ATCC 25922, 18 h; for MBC Escherichia coli: ATCC 25922, 24 h
Outline: as §1

[9] = test system: Candida albicans (ATCC 10231); conditions: ATCC 10231, 48 h
Outline: as §1

[10] = test system: Enterococcus faecalis (ATCC 29212); conditions: for MBC Enterococcus fecalis, lipopeptides without TFA counter ion / MIC Enterococcus fecalis / MIC Enterococcus fecalis, lipopeptides without TFA counter ion: ATCC 29212, 18 h; for MBC Enterococcus fecalis: ATCC 29212, 24 h
Outline: as §1

[11] = test system: Pseudomonas aeruginosa (ATCC 9027); conditions: ATCC 9027, 18 h
Outline: as §1

[12] = test system: Klebsiella pneumoniae (ATCC 700603); conditions: for MBC Klebsiella pneumoniae, lipopeptides without TFA counter ion / MIC Klebsiella pneumoniae / MIC Klebsiella pneumoniae, lipopeptides without TFA counter ion: ATCC 700603, 18 h; for MBC Klebsiella pneumoniae: ATCC 700603, 24 h
Outline: as §1

[13] = test system: Proteus vulgaris (PCM 2668); conditions: 18 h
Outline: as §1

[14] = test system: Proteus vulgaris (PCM 2668); conditions: 24 h
[15] = test system: human red blood cells; conditions: 1 h
Method: The hemolytic activity of the lipopeptides was determined by exposing human red blood cells (4% v/v) to tested compounds at graded concentrations. Red blood cells were obtained from a healthy donor. EDTA was used to prevent the blood clotting. The plasma was removed via centrifugation and the erythrocytes were washed three times with PBS. The red blood cells were suspended in PBS and incubated with different concentrations of lipopeptides at 37°C for 1 h and centrifuged for 5 min at 1000 × g. The supernatants were transferred to a sterile 96-well plate and hemoglobin release was measured with an Epoch microplate spectrophotometer (BioTek, USA) by recording the absorbance at 550 nm. A 0.1% Triton X-100 solution was used as the positive control (100% of hemolysis) and pure PBS as the negative (0% of hemolysis). Minimum hemolytic concentration (MHC) was taken as the lowest concentration which induced 10% of hemolysis.

Row | Compound | MBC Pseudomonas aeruginosa [1] [µg/mL] | MFC Candida albicans, lipopeptides without TFA counter ion [2] [µg/mL] | MFC Candida tropicalis [3] [µg/mL] | MIC Candida tropicalis [3] [µg/mL] | MIC Bacillus subtillis [4] [µg/mL] | MBC Bacillus subtillis [4] [µg/mL] | MIC Staphylococcus epidermidis [5] [µg/mL] | MBC Staphylococcus epidermidis [5] [µg/mL] | MFC Aspergillus brasiliensis [6] [µg/mL] | MIC Aspergillus brasiliensis [6] [µg/mL] | MBC Staphylococcus aureus, lipopeptides without TFA counter ion [7] [µg/mL] | MIC Staphylococcus aureus [7] [µg/mL] | MIC Staphylococcus aureus, lipopeptides without TFA counter ion [7] [µg/mL] | MBC Staphylococcus aureus [7] [µg/mL] | MBC Escherichia coli, lipopeptides without TFA counter ion [8] [µg/mL] | MIC Escherichia coli [8] [µg/mL] | MIC Escherichia coli, lipopeptides without TFA counter ion [8] [µg/mL] | MBC Escherichia coli [8] [µg/mL] | MFC Candida albicans [9] [µg/mL] | MIC Candida albicans [9] [µg/mL] | other results
1 | CCCCCCCCCCCCCC(=O)N[C@@H](CCCCN)C(=O)NCC(=O)N[C@@H](CCCCN)C(=O)NCC(N)=O [C14-KGKG-NH2] (Myristoyl-KGKG-NH2) | 128 (≈ 214 µM) | 256 (≈ 428 µM) | 512 (≈ 856 µM) | 512 (≈ 856 µM) | 16 (≈ 26.8 µM) | 16 (≈ 26.8 µM) | 32 (≈ 53.5 µM) | 32 (≈ 53.5 µM) | 128 (≈ 214 µM) | 128 (≈ 214 µM) | 64 (≈ 107 µM) | 64 (≈ 107 µM) | 64 (≈ 107 µM) | 128 (≈ 214 µM) | 128 (≈ 214 µM) | 128 (≈ 214 µM) | 128 (≈ 214 µM) | 128 (≈ 214 µM) | 128 (≈ 214 µM) | 128 (≈ 214 µM) | MIC Candida albicans, lipopeptides without TFA counter ion [9]: 256 µg/mL (≈ 428 µM); MBC Enterococcus fecalis, lipopeptides without TFA counter ion [10]: 64 µg/mL (≈ 107 µM); MIC Enterococcus fecalis [10]: 64 µg/mL (≈ 107 µM); MIC Enterococcus fecalis, lipopeptides without TFA counter ion [10]: 64 µg/mL (≈ 107 µM); MBC Enterococcus fecalis [10]: 64 µg/mL (≈ 107 µM); MIC Pseudomonas aeruginosa [11]: 64 µg/mL (≈ 107 µM); MBC Klebsiella pneumoniae, lipopeptides without TFA counter ion [12]: 128 µg/mL (≈ 214 µM); MIC Klebsiella pneumoniae [12]: 128 µg/mL (≈ 214 µM); MIC Klebsiella pneumoniae, lipopeptides without TFA counter ion [12]: 128 µg/mL (≈ 214 µM); MBC Klebsiella pneumoniae [12]: 128 µg/mL (≈ 214 µM); MIC Proteus vulgaris [13]: >512 µg/mL; MBC Proteus vulgaris [14]: >512 µg/mL; Hemolysis HC10 (MHC), concentration of lipopeptide inducing 10% of hemolysis [15]: 512 µg/mL
2 | CCCCCCCCCCCCCC(=O)N[C@@H](CCCCN)C(=O)NCC(=O)N[C@@H](CCCCN)C(N)=O [C14-KGK-NH2] (Myristoyl-Lys-Gly-Lys-NH2) | 64 (≈ 118 µM) | 128 (≈ 237 µM) | 256 (≈ 473 µM) | 256 (≈ 473 µM) | 8 (≈ 14.8 µM) | 8 (≈ 14.8 µM) | 16 (≈ 29.6 µM) | 16 (≈ 29.6 µM) | 128 (≈ 237 µM) | 128 (≈ 237 µM) | 64 (≈ 118 µM) | 64 (≈ 118 µM) | 64 (≈ 118 µM) | 128 (≈ 237 µM) | 128 (≈ 237 µM) | 128 (≈ 237 µM) | 128 (≈ 237 µM) | 128 (≈ 237 µM) | 128 (≈ 237 µM) | 128 (≈ 237 µM) | MIC Candida albicans, lipopeptides without TFA counter ion [9]: 128 µg/mL (≈ 237 µM); MBC Enterococcus fecalis, lipopeptides without TFA counter ion [10]: 64 µg/mL (≈ 118 µM); MIC Enterococcus fecalis [10]: 64 µg/mL (≈ 118 µM); MIC Enterococcus fecalis, lipopeptides without TFA counter ion [10]: 64 µg/mL (≈ 118 µM); MBC Enterococcus fecalis [10]: 64 µg/mL (≈ 118 µM); MIC Pseudomonas aeruginosa [11]: 32 µg/mL (≈ 59.2 µM); MBC Klebsiella pneumoniae, lipopeptides without TFA counter ion [12]: 64 µg/mL (≈ 118 µM); MIC Klebsiella pneumoniae [12]: 64 µg/mL (≈ 118 µM); MIC Klebsiella pneumoniae, lipopeptides without TFA counter ion [12]: 64 µg/mL (≈ 118 µM); MBC Klebsiella pneumoniae [12]: 64 µg/mL (≈ 118 µM); MIC Proteus vulgaris [13]: >512 µg/mL; MBC Proteus vulgaris [14]: >512 µg/mL; Hemolysis HC10 (MHC), concentration of lipopeptide inducing 10% of hemolysis [15]: 128 µg/mL
